Key:
STS = biological target: T1, STS (Homo sapiens, UniProt P08842); test: Male volunteer study: STS activity after EMATE; assay type: in vivo, volunteer subject; details: 40 mg, FIG. 12
T1 construct: endogenous in cells; host or cells: volunteer subject
T1 sequence (P08842 22-583): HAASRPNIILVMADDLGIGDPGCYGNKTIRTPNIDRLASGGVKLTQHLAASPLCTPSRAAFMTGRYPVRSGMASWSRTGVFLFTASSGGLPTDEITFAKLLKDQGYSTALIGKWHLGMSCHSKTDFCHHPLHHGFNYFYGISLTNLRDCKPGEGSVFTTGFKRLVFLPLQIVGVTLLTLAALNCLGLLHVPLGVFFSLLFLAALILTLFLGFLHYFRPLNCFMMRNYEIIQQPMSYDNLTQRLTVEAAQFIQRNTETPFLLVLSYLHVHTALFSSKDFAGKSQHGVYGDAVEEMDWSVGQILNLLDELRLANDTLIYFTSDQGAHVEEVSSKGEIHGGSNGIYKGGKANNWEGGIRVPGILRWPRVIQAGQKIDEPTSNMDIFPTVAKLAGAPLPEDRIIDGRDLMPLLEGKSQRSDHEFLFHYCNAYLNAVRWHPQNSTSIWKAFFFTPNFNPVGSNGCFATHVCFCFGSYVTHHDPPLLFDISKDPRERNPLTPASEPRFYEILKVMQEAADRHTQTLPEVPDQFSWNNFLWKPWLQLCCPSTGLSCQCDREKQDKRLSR

[1] = system: plasma androstenedione; oestrone sulphate (E1S) to oestrone (E1) ratio; test: Male volunteer study: plasma steroids after EMATE; details: 40 mg
steroid sulphatase (STS) = biological target: T2, steroid sulphatase (STS) (Homo sapiens, UniProt P08842); test: Phase I trial: STS activity in peripheral blood lymphocytes after oral STX64; assay type: in vivo, humans
T2 construct: endogenous in cells; host or cells: peripheral blood lymphocytes (PBLs) of patients dosed orally with STX64
T2 sequence (P08842 22-583): T1 sequence (P08842 22-583)
Experimental: (§1) In the Phase I trial STX64 (5 mg or 20 mg) was administered orally as a single test dose on day 1 of the trial. Twenty four hours (24 h) later a blood sample was taken to evaluate STS activity in peripheral blood lymphocytes (PBLs) and also to measure steroid hormone concentrations. On day 8 of the trial patients received daily dosing for 5 days with a further blood sample being collected at the end of this period on day 12 (D12).
STS activity was measured in PBLs isolated from 10 ml blood collected using a vacutainer. The enzyme in the cells was solubilized with phosphate-buffered saline/Triton X-100 and STS activity measured using a physiological (2-3 nM) substrate concentration of ^3H estrone sulphate [^3H-E1S] over a 20 h period.

[2] = system: serum androstenedione, testosterone, E1, E2, DHEAS and DHEA; test: Phase I trial: serum steroid hormone concentrations after oral STX64; assay type: in vivo, humans
Experimental: The assay for the determination of androstenedione, testosterone, E1 and E2 was the gas chromatographic tandem mass spectroscopic method of Wang et al., (2005). Recombinant cell ultra-sensitive bioassay for measurements of estrogens in postmenopausal women. J Clin Endocrinol Metab (In press).
as §1
Serum concentrations of the steroids listed below were measured: […]

SMILES | STS activity (STS) | persistence of the reduction in plasma androstenedione concentration [1] | reduction in the plasma androstenedione concentration [1] | oestrone sulphate (E1S) to oestrone (E1) ratio ([1]; FIG. 12) | inhibition at 5 mg (steroid sulphatase (STS); 5 mg dose, read-out: inhibition of steroid sulphatase (STS) activity, as measured in peripheral blood lymphocytes) [%] | inhibition at 20 mg (steroid sulphatase (STS); 20 mg dose, read-out: inhibition of steroid sulphatase (STS) activity, as measured in peripheral blood lymphocytes) [%] | STS activity, as measured in PBLs (steroid sulphatase (STS); 24 h after the test dose and on day 12 of the trial, oral 5 mg or 20 mg, FIG. 2) | serum androstenedione concentrations ([2]; 5 mg and 20 mg doses, FIG. 11 (ii)) | serum testosterone concentrations ([2]; 5 mg and 20 mg doses, FIG. 11 (iii)) | serum androstenedione concentration ([2]; 24 h and day 12 time points after administration, FIG. 3) | serum testosterone concentration ([2]; 24 h and day 12 time points after administration, FIG. 4) | serum E1 concentration ([2]; Phase I trial, FIG. 5) | serum E2 concentration ([2]; Phase I trial, FIG. 6) | ratios of DHEAS: DHEA ([2]; both the 5 mg and 20 mg doses, FIG. 11 (i)) | serum Adione concentration ([2]; individual patient, 24 h after initial single dose, FIGS. 7 and 9) | Adione concentrations ([2]; individual patient, following daily dosing for 5 days (D5+8 h), FIGS. 7 and 9)
C[C@]12CC[C@@H]3c4ccc(OS(N)(=O)=O)cc4CC[C@H]3[C@@H]1CCC2=O [EMATE, oestrone-3-O-sulphamate] | almost completely inhibited | up to 15 days | 20-30% | marked increase | – | – | – | – | – | – | – | – | – | – | – | –
NS(=O)(=O)Oc1ccc2c3c(c(=O)oc2c1)CCCCC3 [STX64] | – | – | – | – | > 90 | > 90 | almost completely inhibited | marked decreases | marked decreases | decreased significantly | decreased significantly | significant decreases | significant decreases | marked increase | marked decrease | further decrease
